Molecules are shown by their SMILES.

T1 sequence (P08659 whole entry, looked up): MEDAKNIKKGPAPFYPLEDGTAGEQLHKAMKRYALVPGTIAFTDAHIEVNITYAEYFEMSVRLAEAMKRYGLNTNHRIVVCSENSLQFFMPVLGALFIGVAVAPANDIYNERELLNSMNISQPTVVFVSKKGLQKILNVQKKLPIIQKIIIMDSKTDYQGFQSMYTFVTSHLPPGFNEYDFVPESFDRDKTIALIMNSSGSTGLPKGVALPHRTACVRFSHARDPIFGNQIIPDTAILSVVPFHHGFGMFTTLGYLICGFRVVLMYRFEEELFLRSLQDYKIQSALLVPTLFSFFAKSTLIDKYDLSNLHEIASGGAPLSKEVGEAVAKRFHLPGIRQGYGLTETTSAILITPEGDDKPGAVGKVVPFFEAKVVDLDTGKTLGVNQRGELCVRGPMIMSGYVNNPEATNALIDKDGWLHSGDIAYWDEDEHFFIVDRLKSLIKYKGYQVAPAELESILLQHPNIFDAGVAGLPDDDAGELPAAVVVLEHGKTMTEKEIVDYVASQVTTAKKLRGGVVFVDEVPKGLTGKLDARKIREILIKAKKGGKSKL

This experiment addresses T1, FLuc-C-HiBiT (Photinus pyralis, UniProt P08659).
T1 construct: firefly luciferase with C-terminal HiBiT tag, E. coli expressed
Put plainly: biochemical. The settings on record: enzyme activity, 10 uM ATP; read-out: IC50 or SDR50 (mM) / FLuc E. As for the experimental part:
The enzyme activity of FLuc-N-HiBiT, FLuc-C-HiBiT, and FLuc-C-NLuc was measured similar to P. pyralis firefly luciferase (FLuc) as previously described. […] Compounds and controls were added to each plate as described in Supplementary Data 8 with a Hornet pintool system (Wako Automation). Compounds were incubated with respective enzymes for 30–60 min at room temperature protected from light and covered by solid metal lid to prevent evaporation. […] Luciferin was incubated with FLuc enzyme for 5 min before FLuc activity was then measured on a ViewLux CCD imager (PerkinElmer), with exposure times up to ten seconds with medium to high gain settings. Data were normalized to average no enzyme control as 100% enzyme inhibition and average DMSO neutral control. See Supplementary Table 4 for additional details. As a proof-of-concept target, we appended the sensor protein or corresponding α-peptide to either the N- or C-terminus of the target protein firefly luciferase (FLuc), an ATP cofactor-dependent monooxygenase (Supplementary Fig. 1a) having a broad, well-characterized and accessible ligand pharmacology. For initial characterization of the SDR concept, either NLuc or the 11 amino acid HiBiT tag (α-peptide) and complementary 18 kDa LgBiT subunit (ω-fragment), which self-assemble to reconstitute functional NLuc enzyme[24] were tested. In contrast to the ATP-dependent bioluminescent FLuc enzyme, NLuc generates a bright bioluminescence in an ATP-independent manner from the direct oxidation of furimazine (Supplementary Fig. 1b). […] Next, FLuc-C-NLuc, FLuc-N-HiBiT or FLuc-C-HiBiT were assayed with the same inhibitor in an SDR assay format by monitoring bioluminescence from NLuc or its reconstitution by α-complementation with LgBiT. Measurements of NLuc activity were made either in the absence or presence of the FLuc ATP cofactor, as NLuc bioluminescence is ATP-independent.
Take `Cc1ccc(-c2nc3ccccc3s2)cc1NC(=O)c1ccc(-c2cccc(Cl)c2)o1` [NCGC00187468-01]: the IC50 was above 30 µM.

Turning to `Cc1ccc(NC(=O)N2CCC(CCNC(=O)C3CCC3)CC2)cc1F` [NCGC00425059-01], the IC50 came to 12.4 µM.

Consider `Cc1ncc(CC(=O)NCc2ccc3[nH]c(-c4ccccc4F)c(C)c3c2)c(=O)[nH]1` [NCGC00436691-01], for which the IC50 amounted to 12.4 µM.

In the case of `CN1CCN(C[C@@H]2CN(C(=O)CCCc3ccccc3)C[C@@H]2CO)CC1` [NCGC00435815-01], the IC50 was above 30 µM.

As to `CCOC(=O)N1CCc2c(sc(NCc3cccc(F)c3)c2C(=O)Nc2ccc(OC)cc2OC)C1` [NCGC00140797-01], the IC50 was found to be 2.48 µM.

Take `c1ccc(-c2noc(-c3ccc(OC4CNC4)cc3)n2)cc1` [NCGC00441173-01]: the IC50 is 2.79 µM.

As to `CCOc1ccc(-c2cc(CCCC(=O)NCCc3ccc(OC)c(OC)c3)no2)cc1` [NCGC00110832-01], the IC50 was 9.89 µM.

In the case of `Cc1ccc(NC(=O)Nc2cccn3nc(C)nc23)cc1` [NCGC00470444-01], the IC50 came to 11.1 µM.

For the molecule `CC(=O)c1cccc(Nc2nn(-c3ccc(OC(F)(F)F)cc3)nc2C(C)=O)c1` [NCGC00116630-01], the IC50 was 4.42 µM.

As for `COc1ccc(C(=O)NCCn2ccn3nc(-c4ccc(C)cc4C)cc3c2=O)cc1F` [NCGC00456968-01], the IC50 was determined as 3.51 µM.

Regarding `CCc1nn2c(-c3ccco3)ccnc2c1-c1ccc(F)cc1` [NCGC00164922-01], the IC50 was 7.85 µM.

Take `COc1cccc(CN2CCNc3cc(Nc4cccnc4)ncc3C2)c1` [NCGC00411206-01]: the IC50 worked out at 18 µM.

As for `Cc1nn(-c2ccc(C(C)C)cc2)c(C)c1[C@@H]1C=C[C@@H](NC(=O)Nc2ccccc2)C1` [NCGC00421405-01], the IC50 was 18 µM.

As for `COc1ccc(C)cc1NC(=O)c1ccc2c(Cl)c3c(nc2c1)CCC3` [NCGC00111420-01], the IC50 came to 1.11 µM.

As to `Cc1ccc(C(=O)Nc2onc3c2CCCC3)cc1` [NCGC00115902-01], the IC50 stood at 0.989 µM.

Take `O=C(Nc1ccccc1)C1CCN(C(=O)N2CC3CC(C2)[C@H]2CCCC(=O)N2C3)CC1` (some centres unmarked) [NCGC00428953-01]: the IC50 is above 30 µM.

On to `CC(C)COc1ccc(C(=O)Nc2onc3c2CCCC3)cc1` [NCGC00115916-01], for which the IC50 worked out at 1.97 µM.

Consider `O=C1c2cnc(-c3ccc(F)cc3F)nc2OCCN1CC1CC1` [NCGC00413656-01], for which the IC50 was found to be 18 µM.

As for `O=C(NCc1cccc(Cl)c1)C1CCCN(c2nn3cc(-c4ccc(F)cc4)nc3s2)C1` (centres unmarked) [NCGC00123714-01], the IC50 is 8.81 µM.

Take `O=C(NC1CCCC1)N1c2ccccc2CC1c1noc(C2CCOCC2)n1` (centres unmarked) [NCGC00471510-01]: the IC50 worked out at 11.1 µM.

`Cc1ccc(C2Cn3nnc(C(=O)N4CCC(C(=O)NCCc5cccs5)CC4)c3CO2)cc1` (centres unmarked) [NCGC00449541-01]: the IC50 came out at 9.89 µM.

Regarding `Cc1nn(-c2ccc(C(C)(C)C)cc2)c(C)c1[C@@H]1C=C[C@@H](NC(=O)COCC(=O)O)C1` [NCGC00400262-01], the IC50 was found to be 20.2 µM.

In the case of `O=C(NCc1ccc(F)cc1)Nc1cccc(-c2ccc(N3CCOCC3)nn2)c1` [NCGC00427604-01], the IC50 turned out to be 1.76 µM.

Take `Oc1cc(-c2nc3ccccc3s2)cc2c1OCCN(Cc1cccn1-c1ccc(Cl)cn1)C2` [NCGC00240283-01]: the IC50 was above 30 µM.

With `Cc1ccc(-c2nc(C(=O)N3CCN(c4ccccc4)CC3)no2)cc1` [NCGC00447113-01], the IC50 amounted to 11.1 µM.

As to `O=C(Nc1nc2c(F)cccc2s1)c1ccc2c(c1)OCCO2` [NCGC00141660-01], the IC50 was found to be 0.495 µM.

Take `COC1CCOC2(CCN(C(=O)CCCc3ccccc3)CC2)C1` (centres unmarked) [NCGC00452766-01]: the IC50 came to 15.7 µM.

Take `CCC(CC)COC(=O)[C@H](C)N[P@](=O)(OC[C@H]1O[C@@](C#N)(c2ccc3c(N)ncnn23)[C@H](O)[C@@H]1O)Oc1ccccc1` [NCGC00686694-05]: the IC50 is above 30 µM.

In the case of `O=C(O)c1cccc(-c2noc(-c3ccccc3C(F)(F)F)n2)c1` [NCGC00168768-02], the IC50 stood at 0.0624 µM.

With `c1ccc(CNc2cc(-c3cc(N4CCCCC4)ncn3)c3cc[nH]c3n2)nc1` [NCGC00436665-01], the IC50 was determined as 9.89 µM.

On to `Cc1ccc(CN2C(=O)OC(c3cccc(NC(=O)c4ccc(C)cc4)c3)C2C(=O)NCC(C)C)cc1` (centres unmarked) [NCGC00475004-01], for which the IC50 is 8.81 µM.

For `O=C(c1ccccc1C(F)(F)F)N1CCOc2c(cc(-c3nc4ccccc4s3)cc2OC2CCOC2)C1` (centres unmarked) [NCGC00240022-01], the IC50 was above 30 µM.

For the molecule `CC(C)c1ccc(NC(=O)O[C@@H]2CO[C@H]3[C@@H]2OC[C@@H]3N[S+](=O)([O-])c2cccs2)cc1` [NCGC00399549-01], the IC50 came out at 8.81 µM.

For the molecule `O=C(c1ccc(F)cc1)N1CCn2c(nnc2C2CC2)C1` [NCGC00480252-01], the IC50 was above 30 µM.

As for `Cc1ccc(CSc2nc3cccnc3n2Cc2ccc(C(=O)NCc3ccco3)cc2)cc1` [NCGC00123842-01], the IC50 was 0.624 µM.

For the molecule `Cc1ccc(OCC(=O)Nc2cccc(C(=O)OCc3cc(=O)n4nc(C)sc4n3)c2)cc1` [NCGC00130504-01], the IC50 was 7 µM.

For `CCC(CC)c1nn2cc(-c3ccccc3)nc2s1` [NCGC00117460-01], the IC50 stood at 0.881 µM.

In the case of `COc1ccc(C(=O)Nc2noc3ccccc23)cc1` [NCGC00115156-01], the IC50 came out at 0.881 µM.

Turning to `CC(C)n1cnnc1CC1CCN(C(=O)Nc2ccc3c(c2)OCCO3)CC1` [NCGC00456228-01], the IC50 came to 9.89 µM.

As for `CCCCOc1nc(N)c2[nH]c(=O)n(Cc3cccc(CC(=O)OC)c3)c2n1` [NCGC00508895-01], the IC50 was above 30 µM.

Turning to `Cc1nonc1COc1ccc(C(=O)Nc2cccc(-c3nc4ccccc4s3)c2)cc1` [NCGC00688799-01], the IC50 came to 9.89 µM.

On to `CCN1c2cc(C(=O)Nc3ccc4c(c3)OCCO4)ccc2C(=O)N2CCCCCC21` (centres unmarked) [NCGC00452264-01], for which the IC50 stood at 9.89 µM.

On to `Cc1cc(-c2cc3c(cn2)CN(Cc2c[nH]cn2)CCN3)ccn1` [NCGC00411148-01], for which the IC50 is 18 µM.

Take `COc1ccc(-n2nc(C)c([C@@H]3C=C[C@@H](NC(=O)NCc4ccccc4)C3)c2C)cc1` [NCGC00421411-01]: the IC50 came out at 6.4 µM.

In the case of `COc1ccc(C(=O)NC2CCCN(c3cc(-c4ccc(F)cc4)n[nH]3)C2)cc1OC` (centres unmarked) [NCGC00437488-01], the IC50 came out at 11.1 µM.

As for `Cc1ccc(C(=O)Nc2ccc3oc(-c4ccccc4C)nc3c2)cc1` [NCGC00118998-01], the IC50 was above 30 µM.

Turning to `CC(C)(Oc1nn(CC2CC2)c2ccc(CN3CCCC3)cc12)C(=O)NC1CCOCC1` [NCGC00419513-01], the IC50 was above 30 µM.

Regarding `NC(=O)CC1CCN(c2ncnc3c2cnn3-c2ccccc2)CC1` [NCGC00610672-01], the IC50 was above 30 µM.

Consider `O=C(Nc1ccc(-c2nc3ccccc3s2)c(O)c1)c1ccccc1F` [NCGC00594666-01], for which the IC50 is above 30 µM.

`COc1ccc2cc(C3CN(C(=O)c4cccc(CO)n4)CCO3)ccc2c1` (centres unmarked) [NCGC00432736-01]: the IC50 was 11.1 µM.

In the case of `Cc1ccc(-c2cccc(COc3cnc4c(ccn4CC(=O)O)c3)c2)cc1` [NCGC00418171-01], the IC50 amounted to 8.05 µM.

As to `Cc1ccc(OCC(=O)Nc2cccc(-c3nc4ccccc4s3)c2)cc1` [NCGC00119153-02], the IC50 stood at 9.89 µM.

For the molecule `CSc1cccc(NC(=O)Nc2cccc(-c3ccc(N4CCOCC4)nn3)c2)c1` [NCGC00427606-01], the IC50 is 1.57 µM.

The values above are taken from PMC12064818, “A general assay platform to study protein pharmacology using ligand-dependent structural dynamics” (Nature Communications, 2025).
